# Marks after values point to notes of the source that are not given here.
# Legend:
# [1] = tested on: heat shock protein Hspa8 and Hspa1a; assay: Example 3 in vivo pharmacodynamic study via oral dosing: RT-qPCR of brain; conditions: mouse brain, 25 mg/kg oral once daily 4 days; for Relative expression of Hspa1a normalized with Group 1 / Relative expression of Hspa8 normalized with Group 1: normalized to Actb
# Experimental: Wildtype mice were dosed orally at 25 mg/kg (6aS)-6-methyl-5,6,6a,7-tetrahydro-4H-dibenzo[de,g]quinoline-10,11-diol for 4 days once daily.
# A total of 36 mice were randomly divided into twelve groups. Each group had 3 mice. After oral administration of (6aS)-6-methyl-5,6,6a,7-tetrahydro-4H-dibenzo[de,g]quinoline-10,11-diol once a day for 4 consecutive days, brains of mice in each group were sampled individually at the time point of 0, 5, 15, 30 min, 1, 2, 3, 4, 8, 12, 24 and 48 hour post the last oral dose. A quarter of whole brain from each mouse in every time group underwent a real-time quantitative polymerase chain reaction (RT-qPCR) analysis. Before RNA extraction, brain tissues were frozen immediately in liquid nitrogen, and were transferred to −80° C. until further use.
# Total RNA from 36 frozen brain samples were extracted using Trizol reagent (Invitrogen, Carlsbad, Calif., USA, 15596018) according to the manufacturer's instructions. After extraction, the integrity of total RNA was be checked by 1% agarose gel staining with ethidium bromide as well as by nanodrop (Thermo Fisher, USA). Then, 2 μg of total RNA was used for reverse transcription by M-MLV Reverse Transcriptase (Invitrogen, 28025-013) with gDNA removal (NEB, M0303S). qRT-PCR analysis was performed using LightCycler® 480 Probe Master (4887301001, Roche, Basel, Switzerland) and the Roche LightCycler480 (Roche). The data from triplicate experiments were subjected to statistical analysis and the target genes were normalized against the levels of actin beta (Actb) mRNA. The primers are listed as follows: […]
# HSF1 regulated genes [2] = assay: Example 2 in vivo pharmacodynamic study via subcutaneous dosing, cortex: expression of genes upregulated by HSF1 activation; parameters: species or system mouse; conditions: for Dlg4 gene induction / Dnajba gene induction / Hspa1a gene induction / Hspa8 gene induction / Syn1 gene induction: wildtype mouse cortex, 5 mg/kg s.c. once daily 7 days, compared to Gapdh
# Experimental: (§1) Wildtype mice (3 per group) were dosed subcutaneously at 0, 0.5, 1.5, 5 and 10 mg/kg (6aS)-6-methyl-5,6,6a,7-tetrahydro-4H-dibenzo[de,g]quinoline-10,11-diol hydrochloride for 7 days once daily. One animal in the 10 mg/kg dosing group was actually dosed 15 mg/kg on Day 1. To prepare the dosing solutions, (6aS)-6-methyl-5,6,6a,7-tetrahydro-4H-dibenzo[de,g]quinoline-10,11-diol was pre-weighed into bijous and stored in foil.
# NQO1 = assay: Example 5 western blot protein analysis in induced astrocytes; assay type: cell-based; conditions: human iAstrocytes (CTR, C9orf72, sALS, SOD1 donors), 10 uM, 48 hours treatment
# From the text: Induced NPCs were generated from adult human fibroblasts from patients who had been diagnosed with ALS and from age-matched healthy controls, using an approach reported previously (Kim et al PNAS, […]. 108(19), 7838-7843; Meyer et al., PNAS, 2014. 111(2), 829-832). Induced NPCs are differentiated into induced astrocytes (iAstrocytes) by culturing the progenitors in iAstrocyte medium for a total of 7 days with a medium change at day 3.
# Cells were scraped from 10 cm dishes and cell pellets were lysed in ice cold IP lysis buffer (150 mM NaCl, 50 mM HEPES, 1 mM EDTA, 1 mM DTT, 0.5% (v/v) Triton X-100, protease inhibitor cocktail, pH 8.0) for 15 minutes and further homogenized using a 25-gauge needle and syringe. Protein samples were separated by SDS-Polyacrylamide Gel Electrophoresis and then semi-dry transferred onto nitrocellulose membranes. Membranes were blotted with Anti-NQO1—1:1000 (5% milk/TBST); rabbit; abcam; ab34173 at 4° C. overnight and anti-Beta-actin—1:5,000 (5% milk/TBST); mouse; abcam; ab6276 clone AC-15 at 4° C. overnight.
# HSF1 regulated genes [3] = assay: Example 1 in vivo pharmacodynamic study via subcutaneous dosing: expression of genes upregulated by HSF1 activation; parameters: species or system mouse
# Experimental: as §1
# [4] = Group 3 (15 min) post last dose
# [5] = Group 4 (30 min) post last dose
# [6] = Group 10 (12 Hr) post last dose
# [7] = Group 11 (24 Hr) post last dose
# [8] = Group 12 (48 Hr) post last dose
# [9] = wildtype mice, 1.5 mg/kg s.c. once daily 7 days, 24 hours post final dose, compared to Actb
# [10] = wildtype mice, 5 mg/kg s.c. once daily 7 days, 24 hours post final dose, compared to Gapdh
# [11] = wildtype mice, 10 mg/kg s.c. once daily 7 days, 6 hours post final dose, compared to Actb
# [12] = wildtype mice, 10 mg/kg s.c. once daily 7 days, 6 hours post final dose, compared to Gapdh
smiles,measurement,setting,value
"CN1CCc2cccc3c2[C@@H]1Cc1ccc(O)c(O)c1-3 [(6aS)-6-methyl-5,6,6a,7-tetrahydro-4H-dibenzo[de,g]quinoline-10,11-diol]",Relative expression of Hspa1a normalized with Group 1,[1]; Group 1 (0 min) post last dose,1.00
same,Relative expression of Hspa8 normalized with Group 1,[1]; Group 1 (0 min) post last dose,1.00
same,Relative expression of Hspa1a normalized with Group 1,[1]; Group 2 (5 min) post last dose,0.96
same,Relative expression of Hspa8 normalized with Group 1,[1]; Group 2 (5 min) post last dose,0.85
same,Relative expression of Hspa1a normalized with Group 1,[1]; [4],1.05
same,Relative expression of Hspa8 normalized with Group 1,[1]; [4],0.89
same,Relative expression of Hspa1a normalized with Group 1,[1]; [5],1.06
same,Relative expression of Hspa8 normalized with Group 1,[1]; [5],0.91
same,Relative expression of Hspa1a normalized with Group 1,[1]; Group 5 (1 Hr) post last dose,0.90
same,Relative expression of Hspa8 normalized with Group 1,[1]; Group 5 (1 Hr) post last dose,0.92
same,Relative expression of Hspa1a normalized with Group 1,[1]; Group 6 (2 Hr) post last dose,1.02
same,Relative expression of Hspa8 normalized with Group 1,[1]; Group 6 (2 Hr) post last dose,0.96
same,Relative expression of Hspa1a normalized with Group 1,[1]; Group 7 (3 Hr) post last dose,1.10
same,Relative expression of Hspa8 normalized with Group 1,[1]; Group 7 (3 Hr) post last dose,0.96
same,Relative expression of Hspa1a normalized with Group 1,[1]; Group 8 (4 Hr) post last dose,1.09
same,Relative expression of Hspa8 normalized with Group 1,[1]; Group 8 (4 Hr) post last dose,1.01
same,Relative expression of Hspa1a normalized with Group 1,[1]; Group 9 (8 Hr) post last dose,2.25*
same,Relative expression of Hspa8 normalized with Group 1,[1]; Group 9 (8 Hr) post last dose,1.11
same,Relative expression of Hspa1a normalized with Group 1,[1]; [6],1.33*
same,Relative expression of Hspa8 normalized with Group 1,[1]; [6],1.17**
same,Relative expression of Hspa1a normalized with Group 1,[1]; [7],1.04
same,Relative expression of Hspa8 normalized with Group 1,[1]; [7],1.14**
same,Relative expression of Hspa1a normalized with Group 1,[1]; [8],1.04
same,Relative expression of Hspa8 normalized with Group 1,[1]; [8],0.99
same,Hspa1a mRNA level compared with group 1 (in words),"[1]; group 9 and 10 (8 Hr, 12 Hr)",significant increase
same,mRNA expression levels of Hspa8 compared with group 1 (in words),"[1]; group 10 and 11 (12 Hr, 24 Hr)",slight increase
same,group in which Hspa1a mRNA level reached a peak,[1]; group 9 = 8 Hr post last dose,group 9
same,dose at which HSF1 regulated genes are activated,"HSF1 regulated genes [2]; mice, s.c. once daily 7 days, Example 2",≥ 0.5 mg/kg
same,Dlg4 gene induction,HSF1 regulated genes [2]; 6 hours post final dose,1.46 fold
same,Dnajba gene induction,HSF1 regulated genes [2]; 6 hours post final dose,1.31 fold
same,Hspa1a gene induction,HSF1 regulated genes [2]; 6 hours post final dose,1.84 fold
same,Hspa8 gene induction,HSF1 regulated genes [2]; 6 hours post final dose,1.56 fold
same,Syn1 gene induction,HSF1 regulated genes [2]; 6 hours post final dose,1.68 fold
same,Dlg4 gene induction,HSF1 regulated genes [2]; 24 hours post final dose,0.90 fold
same,Dnajba gene induction,HSF1 regulated genes [2]; 24 hours post final dose,1.17 fold
same,Hspa1a gene induction,HSF1 regulated genes [2]; 24 hours post final dose,2.25 fold
same,Hspa8 gene induction,HSF1 regulated genes [2]; 24 hours post final dose,2.62 fold
same,Syn1 gene induction,HSF1 regulated genes [2]; 24 hours post final dose,1.47 fold
same,NQO1 protein (western blot quantification) compared to DMSO treatment,NQO1,significant increase
same,dose at which HSF1 regulated genes are activated (Hspa1a and Dnajb1 gene inductions),"HSF1 regulated genes [3]; mice, s.c. once daily 7 days, Example 1",≥ 0.5 mg/kg
same,Hspa1a gene induction,HSF1 regulated genes [3]; [9],2.3 fold
same,Pgc1a gene induction,HSF1 regulated genes [3]; [9],1.7 fold
same,Hspa1a gene induction,HSF1 regulated genes [3]; [10],2.3 fold
same,Pgc1a gene induction,HSF1 regulated genes [3]; [10],1.7 fold
same,Hspa1a gene induction,HSF1 regulated genes [3]; [11],2.0 fold
same,Pgc1a gene induction,HSF1 regulated genes [3]; [11],1.5 fold
same,Dnajb1 gene induction,HSF1 regulated genes [3]; [12],1.3 fold
same,Hspa1a gene induction,HSF1 regulated genes [3]; [12],2.2 fold
same,Pgc1a gene induction,"HSF1 regulated genes [3]; wildtype mice, repeated dose of 5 mg/kg s.c. once daily 7 days, compared to Gapdh (6 hours post final dose per preceding sentence)",1.8 fold

# Reference: patent publication US20220265635A1, “TREATMENT OF NEUROLOGICAL DISEASE” (Aclipse One Inc., priority 2018, published 2022)
